Here are results for three compounds from paper PMC9412374, “Design, Synthesis, and Development of pyrazolo[1,5-a]pyrimidine Derivatives as a Novel Series of Selective PI3Kδ Inhibitors: Part I—Indole Derivatives” (Pharmaceuticals, 2022).

≈ marks a conversion by molar mass, not a printed value. Like-named read-outs stand apart in the source and are kept apart here.

One data set has as its target T1, PI3Kβ (Homo sapiens, UniProt P42338).
T1 construct: purchased Merck Millipore
The experiment in a line: In vitro kinase inhibition assay for PI3K (ADP-Glo), PI3Kβ. The class given is biochemical. Conditions: for Fold Selectivity β/δ: ratio of IC50 PI3Kβ to IC50 PI3Kδ. As to the method: (§1) Tested compounds were dissolved in 100% DMSO, and obtained solutions were serially diluted in 1× reaction buffer. The recombinant kinase solution was diluted in a reaction mixture comprising 5× reaction buffer, respective compound solution (1 mM sodium diacetate 4,5-bisphosphate phosphatidylinositol (PIP2) solution in 40 mM Tris buffer), and water. In a 96-wells plate, 5 μL of compound solutions and 15 μL of the kinase solution in the reaction mixture were added per well. To initiate the interaction of chemical compounds to be tested with the enzyme, the plate was incubated for 10 min at a suitable temperature in a plate thermostat with orbital shaking at 600 rpm. Negative control wells contained all the above reagents except tested compound and kinase, and positive control wells contained all the above reagents except tested compounds. […] Subsequently, the plate was incubated for 1 h at 25 or 30 °C (depending on the PI3K isoform tested) in a plate thermostat with orbital shaking of the plate contents at 600 rpm. The reaction conditions are combined in the table below (Table 6).
(§2) Detection of ADP formed in the enzymatic reaction was then performed using ADP-Glo Kinase Assay™ (Promega, Madison, WI, USA). To the wells of a 96-well plate, 25 μL of ADP-Glo Reagent™ was added, and the plate was incubated for 40 min at 25 °C in a plate thermostat with orbital shaking at 600 rpm. Then 50 μL of Kinase Detection Reagent were added to each well, and the plate was incubated for 40 min at 25 °C in a plate thermostat with orbital shaking at 600 rpm. Once the incubation was complete, the luminescence intensity was measured using a Victor Light luminometer (Perkin Elmer, Inc., Waltham, MA, USA). IC50 values were determined based on luminescence intensity measured in wells containing tested compounds at different concentrations in relation to control wells. […] Each compound was tested at least in quadruplicates (4 wells) on two 96-well plates utilizing at least 4 wells for each control.

Data set [1] in a line: Metabolic phase I stability in mouse microsomes. The class given is in vitro ADME. Conditions: NADPH, 37 °C; for microsomal CLint at 1 μM: heading: MLM Cl; for half-life at 1 μM: read-out: MLM t1/2. On the procedure: (§3) Assessment of metabolic phase I stability in mouse (CD-1™) and human microsomes (Thermo-Fisher Scientific, Waltham, MA, USA) was performed on 96-well non-binding plates (Greiner, Frickenhausen, Germany) at 1 μM concentration for verapamil (positive control) and donepezil (negative control) and tested compounds. Unless otherwise stated, all chemicals and materials were ordered from Merck Life Science (Palo Alto, CA, USA). Each biological replicate was prepared in triplicates. Briefly, mixtures were incubated in 100 mM potassium phosphate buffer with microsomes (0.5 mg/mL) and NADPH (1–1.2 mM) on a plate shaker (500 rpm) in the dark at 37 °C. A 4× solution of NADPH, a cofactor for metabolic enzymes, was prepared directly prior to the experiment by reducing NADP with G6P dehydrogenase (13.2 mM MgCl2, 13.2 mM G6P, 5.2 mM NADP, 3.2 U/mL G6P dehydrogenase, 20 min at 30 °C, 500 rpm). The negative control contained buffer instead of NADPH solution. Samples were collected at 0, 10, 20, and 40 min or 0 and 40 min for the negative and double negative controls. The reaction was stopped by protein precipitation in 2 volumes of ice-cold MeOH with 200 nM imipramine (an internal standard for LC-MS analysis). Then, the extract was mixed (1 min, 1000 rpm), filtered through a 0.22 μm filter on a 96-well plate vacuum manifold, and subjected to LC-MS analysis.

In another data set the target is T2, PI3Kα (Homo sapiens, UniProt P42336).
T2 construct: purchased Carna Biosciences
T2 sequence (P42336 whole entry): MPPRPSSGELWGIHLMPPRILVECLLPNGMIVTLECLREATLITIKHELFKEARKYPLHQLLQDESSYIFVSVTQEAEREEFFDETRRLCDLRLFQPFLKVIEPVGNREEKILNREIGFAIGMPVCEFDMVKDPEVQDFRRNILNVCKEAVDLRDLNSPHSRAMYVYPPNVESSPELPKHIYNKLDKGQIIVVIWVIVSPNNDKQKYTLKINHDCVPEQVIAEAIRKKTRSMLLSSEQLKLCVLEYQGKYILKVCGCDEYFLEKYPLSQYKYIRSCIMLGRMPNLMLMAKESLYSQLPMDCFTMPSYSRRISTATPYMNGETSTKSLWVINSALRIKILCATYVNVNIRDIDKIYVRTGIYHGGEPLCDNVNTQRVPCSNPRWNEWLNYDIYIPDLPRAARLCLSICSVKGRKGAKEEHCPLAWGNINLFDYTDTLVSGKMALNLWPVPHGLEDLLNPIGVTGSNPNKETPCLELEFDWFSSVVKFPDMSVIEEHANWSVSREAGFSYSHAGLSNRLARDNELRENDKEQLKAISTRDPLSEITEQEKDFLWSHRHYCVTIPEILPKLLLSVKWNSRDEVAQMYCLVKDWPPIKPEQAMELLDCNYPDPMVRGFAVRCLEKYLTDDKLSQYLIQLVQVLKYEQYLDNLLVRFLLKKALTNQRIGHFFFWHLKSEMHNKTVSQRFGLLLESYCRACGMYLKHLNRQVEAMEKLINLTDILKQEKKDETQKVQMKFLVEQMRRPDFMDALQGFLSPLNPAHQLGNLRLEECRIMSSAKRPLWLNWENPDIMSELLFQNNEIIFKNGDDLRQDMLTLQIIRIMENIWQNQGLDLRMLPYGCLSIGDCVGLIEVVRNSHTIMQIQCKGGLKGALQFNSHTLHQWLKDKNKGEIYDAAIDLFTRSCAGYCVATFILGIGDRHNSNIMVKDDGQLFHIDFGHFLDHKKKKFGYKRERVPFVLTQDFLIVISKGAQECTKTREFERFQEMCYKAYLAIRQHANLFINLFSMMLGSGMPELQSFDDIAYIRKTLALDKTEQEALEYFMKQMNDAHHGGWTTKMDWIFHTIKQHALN
T2 sequence (P27986 whole entry partner): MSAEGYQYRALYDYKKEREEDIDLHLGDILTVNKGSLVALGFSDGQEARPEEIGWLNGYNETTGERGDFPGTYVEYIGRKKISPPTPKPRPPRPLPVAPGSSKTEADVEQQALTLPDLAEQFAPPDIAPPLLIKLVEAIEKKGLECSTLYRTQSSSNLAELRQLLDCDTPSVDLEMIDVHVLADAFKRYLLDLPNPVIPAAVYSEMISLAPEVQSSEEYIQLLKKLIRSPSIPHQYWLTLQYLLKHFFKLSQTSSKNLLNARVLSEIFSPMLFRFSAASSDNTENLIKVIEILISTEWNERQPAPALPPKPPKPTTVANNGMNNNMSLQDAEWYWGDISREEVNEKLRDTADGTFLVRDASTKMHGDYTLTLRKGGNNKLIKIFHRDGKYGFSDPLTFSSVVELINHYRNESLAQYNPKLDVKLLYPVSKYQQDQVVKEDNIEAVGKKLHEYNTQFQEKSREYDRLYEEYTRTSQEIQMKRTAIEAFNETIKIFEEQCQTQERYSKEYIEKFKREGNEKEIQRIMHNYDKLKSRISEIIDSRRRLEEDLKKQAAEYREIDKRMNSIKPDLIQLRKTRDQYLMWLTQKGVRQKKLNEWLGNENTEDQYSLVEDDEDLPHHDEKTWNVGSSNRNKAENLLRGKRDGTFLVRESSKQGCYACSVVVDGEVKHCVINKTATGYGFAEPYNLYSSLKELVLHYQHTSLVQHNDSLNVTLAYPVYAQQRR
Put plainly: In vitro kinase inhibition assay for PI3K (ADP-Glo), PI3Kα. The class given is biochemical. As to conditions: for IC50: IC50 PI3K α, recombinant kinase, ADP-Glo, mean of two independent experiments; for Fold Selectivity α/δ: ratio of IC50 PI3Kα to IC50 PI3Kδ. As to the method: Tested compounds were dissolved in 100% DMSO, and obtained solutions were serially diluted in 1× reaction buffer. The recombinant kinase solution was diluted in a reaction mixture comprising 5× reaction buffer, respective compound solution (1 mM sodium diacetate 4,5-bisphosphate phosphatidylinositol (PIP2) solution in 40 mM Tris buffer), and water. In a 96-wells plate, 5 μL of compound solutions and 15 μL of the kinase solution in the reaction mixture were added per well. To initiate the interaction of chemical compounds to be tested with the enzyme, the plate was incubated for 10 min at a suitable temperature in a plate thermostat with orbital shaking at 600 rpm. Negative control wells contained all the above reagents except tested compound and kinase, and positive control wells contained all the above reagents except tested compounds. The enzymatic reaction was initiated by adding 5 μL of 150 μM ATP solution. Subsequently, the plate was incubated for 1 h at 25 or 30 °C (depending on the PI3K isoform tested) in a plate thermostat with orbital shaking of the plate contents at 600 rpm. The reaction conditions are combined in the table below (Table 6).
Detection of ADP formed in the enzymatic reaction was then performed using ADP-Glo Kinase Assay™ (Promega, Madison, WI, USA). To the wells of a 96-well plate, 25 μL of ADP-Glo Reagent™ was added, and the plate was incubated for 40 min at 25 °C in a plate thermostat with orbital shaking at 600 rpm. Then 50 μL of Kinase Detection Reagent were added to each well, and the plate was incubated for 40 min at 25 °C in a plate thermostat with orbital shaking at 600 rpm. Once the incubation was complete, the luminescence intensity was measured using a Victor Light luminometer (Perkin Elmer, Inc., Waltham, MA, USA). IC50 values were determined based on luminescence intensity measured in wells containing tested compounds at different concentrations in relation to control wells. These values were calculated with Graph Pad 5.03 software by fitting the curve using non-linear regression. Each compound was tested at least in quadruplicates (4 wells) on two 96-well plates utilizing at least 4 wells for each control. Averaged results of inhibition activity respective to specific isoforms of PI3K kinases for tested compounds are presented as IC50 values in Table 1, Table 2, Table 3 and Table 4.
(In general: In ADP-Glo the light output rises with the ADP produced.)

The target of the next data set is T3, PI3Kδ (Homo sapiens, UniProt O00329).
T3 construct: purchased Merck Millipore
T3 sequence (P27986 whole entry): as the sequence (P27986 whole entry partner) above
T3 sequence (O00329 whole entry): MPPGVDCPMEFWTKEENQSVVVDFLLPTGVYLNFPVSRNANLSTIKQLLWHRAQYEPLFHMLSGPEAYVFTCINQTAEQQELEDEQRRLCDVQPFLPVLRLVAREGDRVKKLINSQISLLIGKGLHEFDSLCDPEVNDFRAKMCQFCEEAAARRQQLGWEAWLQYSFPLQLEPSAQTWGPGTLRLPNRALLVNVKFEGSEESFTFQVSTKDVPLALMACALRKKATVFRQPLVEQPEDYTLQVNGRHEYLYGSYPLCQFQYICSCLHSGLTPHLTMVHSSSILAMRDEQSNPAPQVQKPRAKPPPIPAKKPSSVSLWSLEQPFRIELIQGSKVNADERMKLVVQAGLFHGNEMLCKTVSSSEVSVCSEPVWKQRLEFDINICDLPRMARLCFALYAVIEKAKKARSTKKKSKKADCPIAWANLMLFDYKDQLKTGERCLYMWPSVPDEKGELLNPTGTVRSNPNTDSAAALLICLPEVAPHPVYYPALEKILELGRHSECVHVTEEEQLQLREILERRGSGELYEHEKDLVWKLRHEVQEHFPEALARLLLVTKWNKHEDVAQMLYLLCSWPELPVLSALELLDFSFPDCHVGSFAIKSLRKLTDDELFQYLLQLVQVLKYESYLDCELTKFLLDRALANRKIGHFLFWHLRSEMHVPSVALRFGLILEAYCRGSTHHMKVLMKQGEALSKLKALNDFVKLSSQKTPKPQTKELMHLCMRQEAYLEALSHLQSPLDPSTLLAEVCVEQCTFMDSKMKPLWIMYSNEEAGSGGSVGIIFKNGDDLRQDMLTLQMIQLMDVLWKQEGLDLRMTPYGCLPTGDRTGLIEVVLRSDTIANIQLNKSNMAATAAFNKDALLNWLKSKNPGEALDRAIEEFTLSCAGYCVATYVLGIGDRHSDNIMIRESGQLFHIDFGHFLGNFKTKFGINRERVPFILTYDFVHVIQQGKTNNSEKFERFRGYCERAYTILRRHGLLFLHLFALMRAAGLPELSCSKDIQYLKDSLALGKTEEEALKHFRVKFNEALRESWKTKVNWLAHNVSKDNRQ
The experiment in a line: In vitro kinase inhibition assay for PI3K (ADP-Glo), PI3Kδ. It counts as biochemical. Conditions: recombinant kinase, mean of two independent experiments. On the procedure: as §1, §2

A short description of data set [2]: Metabolic phase I stability in human microsomes. Conditions: human microsomes 0.5 mg/mL, NADPH, 37 °C; for half-life at 1 μM: read-out: HLM t1/2. It counts as in vitro ADME. As to the method:
as §3

In a further data set the target is T4, PI3Kγ (Homo sapiens, UniProt P48736).
T4 construct: purchased Merck Millipore
T4 sequence (P48736 whole entry): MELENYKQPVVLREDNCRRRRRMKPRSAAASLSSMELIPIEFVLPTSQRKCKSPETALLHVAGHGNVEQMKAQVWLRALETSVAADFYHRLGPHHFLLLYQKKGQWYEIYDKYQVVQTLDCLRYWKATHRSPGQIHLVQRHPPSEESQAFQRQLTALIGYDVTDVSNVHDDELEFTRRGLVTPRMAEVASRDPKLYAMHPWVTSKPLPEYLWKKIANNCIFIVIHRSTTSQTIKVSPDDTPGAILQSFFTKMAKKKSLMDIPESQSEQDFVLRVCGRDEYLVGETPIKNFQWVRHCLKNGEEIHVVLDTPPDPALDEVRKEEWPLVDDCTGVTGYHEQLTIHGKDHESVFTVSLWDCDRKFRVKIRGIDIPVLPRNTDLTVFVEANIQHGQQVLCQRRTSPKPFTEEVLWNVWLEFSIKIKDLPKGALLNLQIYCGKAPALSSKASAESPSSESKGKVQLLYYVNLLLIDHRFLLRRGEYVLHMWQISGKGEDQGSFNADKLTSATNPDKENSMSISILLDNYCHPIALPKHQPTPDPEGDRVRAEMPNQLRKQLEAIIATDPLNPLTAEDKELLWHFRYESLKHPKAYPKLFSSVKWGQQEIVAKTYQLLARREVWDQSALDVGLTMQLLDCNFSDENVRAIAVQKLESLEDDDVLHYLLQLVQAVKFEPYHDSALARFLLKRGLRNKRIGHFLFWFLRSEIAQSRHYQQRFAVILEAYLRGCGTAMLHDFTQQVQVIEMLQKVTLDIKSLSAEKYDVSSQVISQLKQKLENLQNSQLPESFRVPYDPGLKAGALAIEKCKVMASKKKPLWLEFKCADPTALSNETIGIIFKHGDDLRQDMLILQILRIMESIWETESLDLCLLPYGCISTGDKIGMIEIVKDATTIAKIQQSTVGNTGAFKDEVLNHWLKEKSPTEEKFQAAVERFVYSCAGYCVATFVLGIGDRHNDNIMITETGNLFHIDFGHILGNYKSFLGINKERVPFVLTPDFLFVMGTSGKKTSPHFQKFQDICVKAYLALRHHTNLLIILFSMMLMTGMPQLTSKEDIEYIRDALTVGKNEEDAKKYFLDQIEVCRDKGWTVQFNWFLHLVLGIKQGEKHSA
Put plainly: In vitro kinase inhibition assay for PI3K (ADP-Glo), PI3Kγ. It counts as biochemical. As to conditions: for Fold Selectivity γ/δ: ratio of IC50 PI3Kγ to IC50 PI3Kδ. On the procedure:
as §1, §2

Another data set deals with CD19 cells. Put plainly: B cells proliferation by flow cytometry (CFSE). The class given is cell-based. Conditions: B-cell, 96 h, CD19 cells from PBMC, activated by αIgM and ODN2006, four days. On the procedure:
CD19 cells were isolated from PBMC using magnetic beads (Stem Cell, Cambridge, MA, USA) and then labeled with 2 µM CFSE (Invitrogen, Waltham, MA, USA).
After four days, cells were stained with LIVE/DEAD™ kit (Invitrogen, Waltham, MA, USA). Samples were acquired using Attune NxT Flow Cytometer (Invitrogen, Waltham, MA, USA) and analyzed using FlowJo software. Each biological assay was performed with cells isolated from a different donor. The presented results constitute the average value of the percentage of proliferating cells from 3 independent experiments.
Background: A flow cytometer gives signals particle by particle.

A short description of data set [3]: Kinetic solubility, shake-flask protocol. The class given is physicochemical. As to conditions: aqueous buffer, kinetic from dmso stock, pH 7.4 phosphate-buffered saline, 25 °C, 500 µM compound. As to the method:
Kinetic solubility was determined by the shake-flask protocol. Appropriate compounds (500 µM) were incubated in an aqueous buffer (0.1 M phosphate-buffered saline pH 7.4) at 25 °C with stirring at 500 rpm. The samples were taken at the start time and after 24 h of incubation, filtered through 0.22 µm filters, and diluted with two volumes of acetonitrile. UHPLC-UV/Vis determined sample concentrations. A calibration curve was prepared to quality the compound’s contents in the test solution.

The mark [4] stands for this setting: CD-1, liver microsomes, mouse microsomes 0.5 mg/mL.
The mark [5] stands for this setting: recombinant kinase, ADP-Glo, mean of two independent experiments, read-out: IC50 PI3K γ.

T1 sequence (P42338 whole entry): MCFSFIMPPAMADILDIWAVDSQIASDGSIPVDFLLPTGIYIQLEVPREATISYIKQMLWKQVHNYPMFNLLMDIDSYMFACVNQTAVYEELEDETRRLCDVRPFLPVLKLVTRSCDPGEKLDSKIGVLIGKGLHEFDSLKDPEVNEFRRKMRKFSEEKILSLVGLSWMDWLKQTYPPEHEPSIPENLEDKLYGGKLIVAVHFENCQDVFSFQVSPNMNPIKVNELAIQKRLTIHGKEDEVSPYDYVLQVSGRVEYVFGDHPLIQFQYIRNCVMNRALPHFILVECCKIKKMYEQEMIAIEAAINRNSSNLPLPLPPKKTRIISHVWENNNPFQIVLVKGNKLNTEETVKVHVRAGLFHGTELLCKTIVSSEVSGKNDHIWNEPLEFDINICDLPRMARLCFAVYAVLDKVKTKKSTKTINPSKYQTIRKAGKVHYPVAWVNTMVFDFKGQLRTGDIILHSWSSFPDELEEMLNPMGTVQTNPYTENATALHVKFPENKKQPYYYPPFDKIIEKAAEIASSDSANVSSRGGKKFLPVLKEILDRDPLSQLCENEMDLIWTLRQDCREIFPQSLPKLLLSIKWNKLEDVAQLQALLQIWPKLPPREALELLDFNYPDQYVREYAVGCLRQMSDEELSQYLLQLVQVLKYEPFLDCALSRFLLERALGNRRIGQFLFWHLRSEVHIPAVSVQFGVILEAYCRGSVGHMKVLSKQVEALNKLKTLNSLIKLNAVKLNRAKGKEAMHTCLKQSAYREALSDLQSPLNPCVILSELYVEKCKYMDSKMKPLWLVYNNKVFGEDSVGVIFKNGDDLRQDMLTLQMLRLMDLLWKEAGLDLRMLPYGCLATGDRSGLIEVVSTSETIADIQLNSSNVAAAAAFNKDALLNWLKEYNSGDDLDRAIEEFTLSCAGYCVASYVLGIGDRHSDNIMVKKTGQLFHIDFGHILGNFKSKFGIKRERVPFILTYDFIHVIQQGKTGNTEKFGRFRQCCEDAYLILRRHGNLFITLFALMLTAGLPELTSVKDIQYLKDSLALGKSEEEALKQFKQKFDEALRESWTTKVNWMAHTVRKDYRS
T1 sequence (P27986 whole entry, further chain): as the sequence (P27986 whole entry partner) above

As a reminder, the IC50 is the point on the concentration scale where inhibition reaches its midpoint. The term microsomal CLint denotes the rate of metabolic loss divided by the concentration. A higher microsomal CLint goes with faster metabolism. As a reminder, the solubility (kinetic) is solubility judged after dilution from a stock solution rather than from solid. Consider `CC(C)(C)N1CCN(Cc2cc3nc(-c4cccc5[nH]ccc45)cc(N4CCOCC4)n3n2)CC1` [Compound 37, 2-((4-tert-butylpiperazin-1-yl)methyl)-5-(1H-indol-4-yl)-7-(morpholin-4-yl)pyrazolo[1,5-a]pyrimidine], for which the “Fold Selectivity β/δ” value at PI3Kβ stood at 829. Besides, the concentration for half-maximal inhibition (IC50) at PI3Kβ (recombinant kinase, ADP-Glo, mean of two independent experiments, read-out: IC50 PI3K β) was 5.47 µM; on PI3Kα, 12.5 µM; at PI3Kδ (read-out: IC50 PI3K δ) it was 0.0066 µM; at PI3Kγ (setting [5]) it was > 60 µM; in the data set with CD19 cells it was 0.02 µM. Also, the microsomal CLint at 1 μM in data set [1] (setting [4]) amounted to 13.7 µL/min/mg; in data set [2] (liver microsomes, heading: HLM Cl) it was 22.8 µL/min/mg. The half-life at 1 μM was 2.1 h in data set [1] (setting [4]) and 1.27 h in data set [2] (liver microsomes). For the same compound, the “Fold Selectivity α/δ” value at PI3Kα is on record as 1889. On PI3Kγ, the “Fold Selectivity γ/δ” value is on record as >9091. The compound further came in with a kinetic solubility at 24 h in data set [3] of 444 µM (≈ 210 µg/mL).
Take `CC(C)(C)N1CCN(Cc2cc3nc(-c4c(F)ccc5[nH]ccc45)cc(N4CCOCC4)n3n2)CC1` [Compound 53, 2-((4-tert-butylpiperazin-1-yl)methyl)-5-(5-fluoro-1H-indol-4-yl)-7-(morpholin-4-yl)pyrazolo[1,5-a]pyrimidine]: the IC50 was 19.5 µM at PI3Kβ, 19.3 µM on PI3Kα, 0.011 µM at PI3Kδ (read-out: IC50 PI3K δ) and > 60 µM at PI3Kγ (setting [5]). In addition, the “Fold Selectivity β/δ” value on PI3Kβ is recorded as 1768. Also, the “Fold Selectivity α/δ” value on PI3Kα worked out at 1754. Besides, the “Fold Selectivity γ/δ” value on PI3Kγ is on record as >5455.
For the compound `CC(C)(C)N1CCN(Cc2cc3nc(-c4cncc5[nH]ccc45)cc(N4CCOCC4)n3n2)CC1` [Compound 54, 2-((4-tert-butylpiperazin-1-yl)methyl)-5-(1H-pyrrolo [2,3-c]pyridin-4-yl)-7-(morpholin-4-yl)pyrazolo[1,5-a]pyrimidine], the half-inhibitory concentration (IC50) stood at 21.6 µM against PI3Kβ; 2.67 µM at PI3Kα; 0.0028 µM on PI3Kδ (IC50 PI3K δ); 34.4 µM against PI3Kγ; 0.019 µM in the data set on CD19 cells. In addition, the “Fold Selectivity β/δ” value at PI3Kβ turned out to be 7714. This compound also came in with a microsomal CLint at 1 μM in data set [1] (CD-1, microsomes, mouse microsomes 0.5 mg/mL) of 7 µL/min/mg. The half-life at 1 μM in data set [1] (CD-1, mouse microsomes 0.5 mg/mL) is 3.3 h; in data set [2], 6.17 h. Besides, the “Fold Selectivity α/δ” value on PI3Kα came out at 954. Besides, on PI3Kγ, the “Fold Selectivity γ/δ” value was 12,286. Also, the solubility (kinetic) at 24 h in data set [3] is > 500 µM.
